Active and inactive are the calls of the source. No cut-off for these calls is given here.
How the values were obtained:
Format in all cases: functional, cell-based
[1] = biological target: T1, Taste receptor type 2 member 10 (Homo sapiens) (UniProt Q9NYW0); experiment: Agonist activity at recombinant human N-terminal rat ST3 receptor-fused TAS2R10 expressed in HEK293T cells co-expressing Galpha16gust44 assessed as increase in intracellular calcium level at 100 uM by FLIPR assay
T1 sequence (whole entry): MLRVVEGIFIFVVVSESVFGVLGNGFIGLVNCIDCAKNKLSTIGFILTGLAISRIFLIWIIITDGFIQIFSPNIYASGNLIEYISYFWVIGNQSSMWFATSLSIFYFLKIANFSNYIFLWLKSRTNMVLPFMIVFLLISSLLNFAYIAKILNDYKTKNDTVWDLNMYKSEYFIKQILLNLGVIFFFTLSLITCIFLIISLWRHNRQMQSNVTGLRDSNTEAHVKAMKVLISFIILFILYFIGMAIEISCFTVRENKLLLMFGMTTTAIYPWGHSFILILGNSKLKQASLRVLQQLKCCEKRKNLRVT

[2] = biological target: T2, Taste receptor type 2 member 14 (Homo sapiens) (UniProt Q9NYV8); experiment: Agonist activity at recombinant human N-terminal rat ST3 receptor-fused TAS2R14 expressed in HEK293T cells co-expressing Galpha16gust44 assessed as increase in intracellular calcium level at 100 uM by FLIPR assay
T2 sequence (whole entry): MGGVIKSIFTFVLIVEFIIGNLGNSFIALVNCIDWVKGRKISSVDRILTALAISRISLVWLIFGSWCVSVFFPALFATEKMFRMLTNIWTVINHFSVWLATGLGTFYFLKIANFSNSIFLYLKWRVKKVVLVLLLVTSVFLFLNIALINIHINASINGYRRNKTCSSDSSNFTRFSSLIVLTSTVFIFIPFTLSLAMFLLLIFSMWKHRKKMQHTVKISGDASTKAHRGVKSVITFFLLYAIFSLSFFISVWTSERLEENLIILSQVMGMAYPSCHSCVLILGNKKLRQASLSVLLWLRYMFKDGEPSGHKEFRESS

[3] = biological target: T3, Taste receptor type 2 member 46 (Homo sapiens) (UniProt P59540); experiment: Antagonist activity at recombinant human N-terminal rat ST3 receptor-fused TAS2R46 expressed in HEK293T cells co-expressing Galpha16gust44 assessed as inhibition of picrotoxinin-induced intracellular calcium level at 100 uM by FLIPR assay
T3 sequence (whole entry): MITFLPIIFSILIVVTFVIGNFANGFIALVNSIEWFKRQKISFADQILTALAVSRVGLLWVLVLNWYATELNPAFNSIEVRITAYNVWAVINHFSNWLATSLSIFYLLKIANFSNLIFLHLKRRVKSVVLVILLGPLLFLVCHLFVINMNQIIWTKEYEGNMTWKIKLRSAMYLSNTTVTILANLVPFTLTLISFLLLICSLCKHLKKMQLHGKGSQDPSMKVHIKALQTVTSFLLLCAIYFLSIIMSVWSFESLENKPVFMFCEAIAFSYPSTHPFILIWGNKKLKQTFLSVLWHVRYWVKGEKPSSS

[4] = biological target: Taste receptor type 2 member 40 (Homo sapiens) (UniProt P59535); experiment: Antagonist activity at recombinant human N-terminal rat ST3 receptor-fused TAS2R40 expressed in HEK293T cells co-expressing Galpha16gust44 assessed as inhibition of cohumulone-induced intracellular calcium level at 100 uM by FLIPR assay
Taste receptor type 2 member 40 (Homo sapiens), sequence (P59535 whole entry, the tested form may be a part): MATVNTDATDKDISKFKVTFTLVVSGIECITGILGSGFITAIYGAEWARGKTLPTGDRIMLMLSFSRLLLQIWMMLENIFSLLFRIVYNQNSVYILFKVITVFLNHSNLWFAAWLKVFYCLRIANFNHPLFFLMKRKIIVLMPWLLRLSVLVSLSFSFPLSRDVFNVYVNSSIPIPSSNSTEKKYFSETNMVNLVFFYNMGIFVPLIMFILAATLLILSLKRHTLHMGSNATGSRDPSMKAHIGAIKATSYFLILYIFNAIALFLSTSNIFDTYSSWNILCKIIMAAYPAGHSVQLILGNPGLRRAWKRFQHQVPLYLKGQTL

[5] = biological target: T4, Taste receptor type 2 member 4 (Homo sapiens) (UniProt Q9NYW5); experiment: Antagonist activity at recombinant human N-terminal rat ST3 receptor-fused TAS2R4 expressed in HEK293T cells co-expressing Galpha16gust44 assessed as inhibition of colchicine-induced increase in intracellular calcium level at 100 uM by FLIPR assay
T4 sequence (whole entry): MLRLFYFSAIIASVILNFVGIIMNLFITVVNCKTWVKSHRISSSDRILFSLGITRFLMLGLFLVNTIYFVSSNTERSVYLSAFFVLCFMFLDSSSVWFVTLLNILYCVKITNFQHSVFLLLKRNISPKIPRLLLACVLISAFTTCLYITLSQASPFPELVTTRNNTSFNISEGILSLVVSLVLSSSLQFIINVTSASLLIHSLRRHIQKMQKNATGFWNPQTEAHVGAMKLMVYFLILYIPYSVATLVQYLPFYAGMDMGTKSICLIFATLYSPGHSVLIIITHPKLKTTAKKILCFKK

[6] = biological target: T5, Taste receptor type 2 member 16 (Homo sapiens) (UniProt Q9NYV7); experiment: Antagonist activity at recombinant human N-terminal rat ST3 receptor-fused TAS2R16 expressed in HEK293T cells co-expressing Galpha16gust44 assessed as inhibition of D-salicin-induced increase in intracellular calcium level at 100 uM by FLIPR assay
T5 sequence (whole entry): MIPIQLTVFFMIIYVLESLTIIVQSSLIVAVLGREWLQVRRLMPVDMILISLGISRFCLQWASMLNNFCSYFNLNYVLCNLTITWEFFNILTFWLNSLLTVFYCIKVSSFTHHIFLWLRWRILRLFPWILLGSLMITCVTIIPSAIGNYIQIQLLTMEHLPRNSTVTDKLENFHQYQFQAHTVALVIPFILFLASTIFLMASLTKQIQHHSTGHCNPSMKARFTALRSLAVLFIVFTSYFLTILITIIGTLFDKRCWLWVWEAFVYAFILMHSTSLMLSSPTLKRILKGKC

[7] = biological target: T6, Taste receptor type 2 member 20 (Homo sapiens) (UniProt P59543); experiment: Antagonist activity at recombinant human N-terminal rat ST3 receptor-fused TAS2R49 expressed in HEK293T cells co-expressing Galpha16gust44 assessed as inhibition of cromolyn-induced increase in intracellular calcium level at 100 uM by FLIPR assay
T6 sequence (whole entry): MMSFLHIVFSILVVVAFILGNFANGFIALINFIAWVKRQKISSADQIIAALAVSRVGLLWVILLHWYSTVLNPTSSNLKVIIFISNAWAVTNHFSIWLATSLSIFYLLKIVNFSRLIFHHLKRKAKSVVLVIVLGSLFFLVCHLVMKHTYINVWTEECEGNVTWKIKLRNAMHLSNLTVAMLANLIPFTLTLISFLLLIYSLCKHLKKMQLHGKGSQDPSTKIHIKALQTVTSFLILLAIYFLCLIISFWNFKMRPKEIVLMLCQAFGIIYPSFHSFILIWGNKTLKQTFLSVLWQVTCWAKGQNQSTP

[8] = biological target: T7, Taste receptor type 2 member 50 (Homo sapiens) (UniProt P59544); experiment: Antagonist activity at recombinant human N-terminal rat ST3 receptor-fused TAS2R50 expressed in HEK293T cells co-expressing Galpha16gust44 assessed as inhibition of andrographolide-induced increase in intracellular calcium level at 100 uM by FLIPR assay
T7 sequence (whole entry): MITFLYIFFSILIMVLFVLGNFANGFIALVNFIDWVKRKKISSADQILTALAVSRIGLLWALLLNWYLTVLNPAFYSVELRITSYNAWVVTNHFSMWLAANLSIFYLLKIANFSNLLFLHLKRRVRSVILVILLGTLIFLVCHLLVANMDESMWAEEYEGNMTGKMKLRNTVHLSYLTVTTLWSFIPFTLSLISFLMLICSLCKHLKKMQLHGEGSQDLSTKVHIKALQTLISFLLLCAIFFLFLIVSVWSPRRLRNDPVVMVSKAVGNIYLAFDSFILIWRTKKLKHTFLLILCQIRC

Compound	Activity [1]	Activity [2]	inhibition [3]	inhibition [4]	inhibition [5]	inhibition [6]	inhibition [7]	inhibition [8]
C/C1=C\C[C@H](O)[C@@H](C)C[C@H]2OC(=O)[C@@H](C)[C@@H]2CC1	Active	Active	Active	Active	inactive	inactive	inactive	inactive
C/C1=C\C[C@H](O)/C(C)=C/[C@H]2OC(=O)[C@@H](C)[C@@H]2CC1	Active	Active	Active	Active	inactive	inactive	inactive	inactive

From ChEMBL document CHEMBL4418912, “Methods of identifying antagonists of the hTAS2R46 bitter taste receptor” (2014)
